Paper PMC12653048 (2025)

How the values were obtained:
[1] = system: s12_13_82 (DNA, aptamer) ATACCAGCTTATTCAATTCAGGGCGGTATGAGGCTCGATCAAGGTCGGAGCGAGAATTTTTTCGCGGAGTCGGCTGGATCAGATAGTAAGTGCAATCT; test: ITC; settings: 50 mM Na+, 3 mM Mg2+; BB: 20 mM Tris-acetate, pH 7.4, 25 °C
[2] = system: s12_13_82m7 (DNA, aptamer) GCGCGATCAAGGTCGGAGCGTTTTCGCGGAGTCGGCTGGATCGCGC; test: ITC; settings: 50 mM Na+, 3 mM Mg2+; BB: 20 mM Tris-acetate, pH 7.4, 25 °C
[3] = system: s12_13_82m8 (DNA, aptamer) GCGATCAAGGTCGGAGCGTTTTCGCGAGTCGGCTGGATCGC; test: ITC; settings: 50 mM Na+, 3 mM Mg2+; BB: 20 mM Tris-acetate, pH 7.4, 25 °C
[4] = system: s11_Kana2 (DNA, aptamer) CACCTAATACGACTCACTATAGCGGATCCGAAGATGGGGGTTGAGGCTAAGCCGACCGTAAGTTGGGCCGTCTGGCTCGAACAAGCTTGC; test: ITC; settings: 50 mM Na acetate, 5 mM K+, 5 mM Mg2+; SB1: 20 mM Tris-acetate, pH 8.0, 25 °C; 20.8 μM aptamer, 300 μM KANA in syringe; KD above 200 μM undetectable
[5] = system: s21_K16 (DNA, aptamer) CGCATACCAGCTTAGTTCAGAATTCATTGGAGCGTGGCGTGGATGCCCGATGAACCGCCCCAGGGTGCAGATAGTAAGTGCAATCTCGGC; test: CD spectroscopy; settings: 100 mM Na acetate, 2 mM Mg2+, 5 mM K+, 1 mM Ca2+; SB2: 20 mM Tris-acetate, pH 7.6, 25 °C; 2 μM aptamer, 20 μM KANA
[6] = system: s25_Kana6-5 (DNA, aptamer) GACGACGCAGTTGGCTTAGCGTAGGTAAAGGTCGATGTCGTC; test: CD spectroscopy; settings: 300 mM Na acetate, 10 mM Mg2+, 5 mM K+; SB3: 50 mM MES-NaOH, pH 7.0, 25 °C; 2 μM aptamer, 20 μM KANA
[7] = system: s12_13_82m6 (DNA, aptamer) GCGCGATCAAGGTCGGAGCGCAGTTGCGGAGTCGGCTGGATCGCGC; test: ITC; settings: 50 mM Na+, 3 mM Mg2+; BB: 20 mM Tris-acetate, pH 7.4, 25 °C
[8] = system: s12_13_82 (DNA, aptamer) ATACCAGCTTATTCAATTCAGGGCGGTATGAGGCTCGATCAAGGTCGGAGCGAGAATTTTTTCGCGGAGTCGGCTGGATCAGATAGTAAGTGCAATCT; test: CD spectroscopy; settings: 50 mM Na acetate, 3 mM Mg2+; BB: 20 mM Tris-acetate, pH 7.4, 25 °C; 2 μM aptamer, 20 μM KANA
[9] = system: s25_Kana6-1 (DNA, aptamer) GACGACGAGGGCCTGAAACTTGCTGGAACGGTTAAAGTCGTC; test: ITC; settings: 300 mM Na acetate, 10 mM Mg2+, 5 mM K+; SB3: 50 mM MES-NaOH, pH 7.0, 25 °C
[10] = system: s12_13_82m5 (DNA, aptamer) GCGATCAAGGTCGGAGCGAGTTCGCGGAGTCGGCTGGATCGC; test: ITC; settings: 50 mM Na+, 3 mM Mg2+; BB: 20 mM Tris-acetate, pH 7.4, 25 °C
[11] = system: s25_Kana6-5 (DNA, aptamer) GACGACGCAGTTGGCTTAGCGTAGGTAAAGGTCGATGTCGTC; test: ITC; settings: 300 mM Na acetate, 10 mM Mg2+, 5 mM K+; SB3: 50 mM MES-NaOH, pH 7.0, 25 °C
[12] = system: s12_13_82m2 (DNA, aptamer) GCGATCAAGGTCGGAGCGAGAATTTTTTCGCGGAGTCGGCTGGATCGC; test: ITC; settings: 50 mM Na+, 3 mM Mg2+; BB: 20 mM Tris-acetate, pH 7.4, 25 °C
[13] = system: s21_K16 (DNA, aptamer) CGCATACCAGCTTAGTTCAGAATTCATTGGAGCGTGGCGTGGATGCCCGATGAACCGCCCCAGGGTGCAGATAGTAAGTGCAATCTCGGC; test: ITC; settings: 100 mM Na acetate, 2 mM Mg2+, 5 mM K+, 1 mM Ca2+; SB2: 20 mM Tris-acetate, pH 7.6, 25 °C; 30 μM aptamer, 350 μM KANA in syringe; KD above 300 μM undetectable
[14] = system: s12_13_82m1 (DNA, aptamer) GATCAAGGTCGGAGCGAGAATTTTTTCGCGGAGTCGGCTGGATC; test: ITC; settings: 50 mM Na+, 3 mM Mg2+; BB: 20 mM Tris-acetate, pH 7.4, 25 °C
[15] = system: s25_Kana6-1 (DNA, aptamer) GACGACGAGGGCCTGAAACTTGCTGGAACGGTTAAAGTCGTC; test: CD spectroscopy; settings: 300 mM Na acetate, 10 mM Mg2+, 5 mM K+; SB3: 50 mM MES-NaOH, pH 7.0, 25 °C; 2 μM aptamer, 20 μM KANA

Row | binding [1] | binding [2] | KD [3] | binding [4] | binding [5] | binding [6] | KD [7] | KD [1] | binding [8] | KD [9] | KD [10] | KD [11] | KD [12] | binding [13] | KD [14] | binding [15] | KD [2] | Structure (SMILES)
1 | no | no | – | – | – | – | – | – | – | – | – | – | – | – | – | – | – | CN[C@@H]1[C@H](O[C@H]2[C@H](O[C@H]3[C@H](O)[C@@H](O)[C@H](N=C(N)N)[C@@H](O)[C@@H]3N=C(N)N)O[C@@H](C)[C@]2(O)C=O)O[C@@H](CO)[C@H](O)[C@H]1O
2 | no | no | – | – | – | – | – | – | – | – | – | – | – | – | – | – | – | NC[C@@H]1O[C@H](O[C@H]2[C@@H](O)[C@H](O[C@@H]3[C@@H](O)[C@H](N)C[C@H](N)[C@H]3O[C@H]3O[C@H](CN)[C@@H](O)[C@H](O)[C@H]3N)O[C@@H]2CO)[C@H](N)[C@@H](O)[C@@H]1O
3 | – | – | 0.0022 ± 0.000352 mM | no | no | yes | 0.000519 ± 4.84e-05 mM | 0.00047 ± 4e-05 mM | yes | 2230 ± 240 nM | 0.000106 ± 8.7e-06 mM | 870 ± 40 nM | 0.000101 ± 8e-06 mM | no | 96 ± 8.7 nM | yes | 0.000109 ± 1.49e-05 mM | NC[C@H]1O[C@H](O[C@H]2[C@H](O)[C@@H](O[C@H]3O[C@H](CO)[C@@H](O)[C@H](N)[C@H]3O)[C@H](N)C[C@@H]2N)[C@H](O)[C@@H](O)[C@@H]1O
